Source: article PMC12332667, “Role of Structural Modifications in Peptidomimetic Compounds as Potential Antimicrobial Agents against Staphylococcus aureus and Streptococcus pyogenes: Balancing Bioavailability, Safety, and Antimicrobial Activity” (ACS Omega, 2025)
Converted amounts (≈) assume the structure as drawn. Like-named read-outs stand apart in the source and are kept apart here.

Key:
[1] = tested on: K. pneumoniae ATCC 700603; experiment: MIC/MBC broth microdilution, K. pneumoniae; format: cell-based
Procedure, shortened: (§1)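 Bacteria inoculated at about 10^5 CFU/mL in BHI broth and incubated 18 h at 37 °C with serial dilutions of peptidomimetics, NCCLS microdilution format. MBC taken as lowest concentration leaving no more than 3 colonies (≥99.9% kill); MIC as lowest concentration without obvious growth (≥90% of untreated); solvent controls included.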

[2] = tested on: primary human keratinocytes; design: method as in PMID 28110818; conditions: concentrations up to 50 μg/mL; reference number not given, probably ref 22; cited from earlier work
[3] = tested on: S. agalactiae ATCC 27956; experiment: MIC/MBC broth microdilution, S. agalactiae; format: cell-based, Streptococcus agalactiae; conditions: Streptococcus agalactiae, ATCC27956, S. agalactiae; for MBC: read-out: MBC; for MIC: read-out: MIC
Procedure, shortened: as §1

[4] = tested on: P. aeruginosa ATCC 10145; experiment: MIC/MBC broth microdilution, P. aeruginosa; format: cell-based
Procedure, shortened: as §1

[5] = tested on: S. intemrdius c.i.; experiment: MIC/MBC broth microdilution, S. intermedius; format: cell-based, Staphylococcus intermedius; conditions: Staphylococcus intermedius
Procedure, shortened: as §1

[6] = tested on: S. schleiferi c.i.; experiment: MIC/MBC broth microdilution, S. schleiferi; format: cell-based, Staphylococcus schleiferi; conditions: Staphylococcus schleiferi; for MBC: read-out: MBC; for MIC: read-out: MIC
Procedure, shortened: as §1

[7] = tested on: S. mutans c.i.; experiment: MIC/MBC broth microdilution, S. mutans; format: cell-based, Streptococcus mutans
Procedure, shortened: as §1

[8] = tested on: S. aureus ATCC 43300; experiment: MIC/MBC broth microdilution, S. aureus; format: cell-based, Staphylococcus aureus; conditions: S. aureus
[9] = tested on: S. cohnii c.i.; experiment: MIC/MBC broth microdilution, S. cohnii; format: cell-based, Staphylococcus cohnii; conditions: Staphylococcus cohnii; for MIC: read-out: MIC
Procedure, shortened: as §1

[10] = tested on: E. coli ATCC 25922; experiment: MIC/MBC broth microdilution, E. coli; format: cell-based, Escherichia coli
Procedure, shortened: as §1

[11] = tested on: S. pyogenes ATCC 19615; experiment: MIC/MBC broth microdilution, S. pyogenes; format: cell-based, Streptococcus pyogenes; conditions: for MBC: read-out: MBC
Procedure, shortened: as §1

[12] = tested on: E. faecalis c.i.; experiment: MIC/MBC broth microdilution, E. faecalis; format: cell-based, Enterococcus faecalis
Procedure, shortened: as §1

[13] = tested on: P. vulgaris ATCC 6896; experiment: MIC/MBC broth microdilution, P. vulgaris; format: cell-based, Proteus vulgaris
Procedure, shortened: as §1

CC(C)C[C@H](NC(=O)[C@H](CCCNC(=N)N)NC(=O)OCc1ccccc1)C(=O)N[C@H](CNC(=O)/C=C/c1ccccc1)C(C)C [Compound A-20]
MIC ([1]; Klebsiella pneumoniae, ATCC700603, H2O, read-out: MIC): > 512 µg/mL
MIC ([1]; water additive DMSO): > 512 µg/mL
MIC ([1]; water additive EtOH): > 512 µg/mL
impact on proliferation [2]: no impact on the proliferation
MBC ([3]; H2O): 256 µg/mL (≈ 403 µM)
MIC ([3]; H2O): 128 µg/mL (≈ 201 µM)
MBC ([3]; water additive DMSO): 64 µg/mL (≈ 101 µM)
MIC ([3]; water additive DMSO): 32 µg/mL (≈ 50.3 µM)
MBC ([3]; water additive EtOH): 128 µg/mL (≈ 201 µM)
MIC ([3]; water additive EtOH): 64 µg/mL (≈ 101 µM)
MIC ([4]; Pseudomonas aeruginosa, ATCC10145, H2O, read-out: MIC): > 512 µg/mL
MIC ([4]; water additive DMSO): > 512 µg/mL
MIC ([4]; water additive EtOH): > 512 µg/mL
MBC ([5]; H2O): 64 µg/mL (≈ 101 µM)
MIC ([5]; H2O): 32 µg/mL (≈ 50.3 µM)
MBC ([5]; water additive DMSO): 32 µg/mL (≈ 50.3 µM)
MIC ([5]; water additive DMSO): 16 µg/mL (≈ 25.2 µM)
MBC ([5]; water additive EtOH): 64 µg/mL (≈ 101 µM)
MIC ([5]; water additive EtOH): 32 µg/mL (≈ 50.3 µM)
MBC ([6]; H2O): 16 µg/mL (≈ 25.2 µM)
MIC ([6]; H2O): 16 µg/mL (≈ 25.2 µM)
MBC ([6]; water additive DMSO): 8 µg/mL (≈ 12.6 µM)
MIC ([6]; water additive DMSO): 8 µg/mL (≈ 12.6 µM)
MBC ([6]; water additive EtOH): 16 µg/mL (≈ 25.2 µM)
MIC ([6]; water additive EtOH): 16 µg/mL (≈ 25.2 µM)
MIC ([7]; Streptococcus mutans, H2O, read-out: MIC): 16 µg/mL (≈ 25.2 µM)
MIC ([7]; water additive DMSO): 16 µg/mL (≈ 25.2 µM)
MIC ([7]; water additive EtOH): 16 µg/mL (≈ 25.2 µM)
MBC ([8]; water additive DMSO): 32 µg/mL (≈ 50.3 µM)
MIC ([8]; water additive DMSO): 16 µg/mL (≈ 25.2 µM)
MBC ([8]; water additive EtOH): 32 µg/mL (≈ 50.3 µM)
MIC ([8]; water additive EtOH): 16 µg/mL (≈ 25.2 µM)
MBC ([8]; Staphylococcus aureus, ATCC43300, H2O, read-out: MBC): 32 µg/mL (≈ 50.3 µM)
MIC ([8]; Staphylococcus aureus, ATCC43300, H2O, read-out: MIC): 16 µg/mL (≈ 25.2 µM)
MBC ([9]; H2O, read-out: MBC): 64 µg/mL (≈ 101 µM)
MIC ([9]; H2O): 128 µg/mL (≈ 201 µM)
MIC ([9]; water additive DMSO): 64 µg/mL (≈ 101 µM)
MIC ([9]; water additive EtOH): 64 µg/mL (≈ 101 µM)
MBC ([10]; Escherichia coli, ATCC25922, H2O, read-out: MBC): 512 µg/mL (≈ 805 µM)
MIC ([10]; Escherichia coli, ATCC25922, H2O, read-out: MIC): 256 µg/mL (≈ 403 µM)
MBC ([10]; water additive DMSO): 512 µg/mL (≈ 805 µM)
MIC ([10]; water additive DMSO): 256 µg/mL (≈ 403 µM)
MBC ([10]; water additive EtOH): 512 µg/mL (≈ 805 µM)
MIC ([10]; water additive EtOH): 256 µg/mL (≈ 403 µM)
MIC ([11]; S. pyogenes, H2O): 8 µg/mL (≈ 12.6 µM)
MIC ([11]; S. pyogenes, water additive EtOH): 8 µg/mL (≈ 12.6 µM)
MBC ([11]; Streptococcus pyogenes, ATCC19615, S. pyogenes, H2O): 16 µg/mL (≈ 25.2 µM)
MBC ([11]; Streptococcus pyogenes, ATCC19615, S. pyogenes, water additive EtOH): 16 µg/mL (≈ 25.2 µM)
MBC ([11]; Streptococcus pyogenes, ATCC19615, S. pyogenes, water additive DMSO): 8 µg/mL (≈ 12.6 µM)
MIC ([11]; Streptococcus pyogenes, ATCC19615, S. pyogenes, water additive DMSO, read-out: MIC): 8 µg/mL (≈ 12.6 µM)
MBC ([12]; Enterococcus faecalis, H2O, read-out: MBC): 256 µg/mL (≈ 403 µM)
MIC ([12]; Enterococcus faecalis, H2O, read-out: MIC): 128 µg/mL (≈ 201 µM)
MBC ([12]; water additive DMSO): 256 µg/mL (≈ 403 µM)
MBC ([12]; water additive EtOH): 256 µg/mL (≈ 403 µM)
MIC ([13]; Proteus vulgaris, ATCC6896, H2O, read-out: MIC): > 512 µg/mL
MIC ([13]; water additive DMSO): > 512 µg/mL
MIC ([13]; water additive EtOH): > 512 µg/mL
